From US20240360122A1, “POLYMORPHIC FORMS AND SALTS OF A GLP-1R AGONIST” (Terns (Suzhou) Biotechnology Co., Ltd., priority 2023, published 2024)
Counter-ions that a name gives are not always drawn.

How the values were obtained:
Format in all cases: physicochemical
[1] = Solid state stability at 25° C./60% RH and 40° C./75% RH for 1 week; details: for HPLC peak Area, RRT 1.00: main peak
Experimental: Each sample was added into a glass vial, sealed by parafilm with several holes, and kept under tested conditions. After one week, samples were taken for XRPD and HPLC purity test.

[2] = Kinetic solubility in water and bio-relevant media (SGF, FaSSIF, FeSSIF) at 37° C.; details: for S: Solubility / FC: Form change: 37° C.; for S: Solubility: calculated by freeform; for FC: Form change: residual solids by XRPD
Experimental: Add 4 mL of medium (H2O, SGF, FaSSIF and FeSSIF). • Rolled at 37° C. (˜25 rpm). Sampling at 1, 2, 4 and 24 hrs. • At each time-point, sampled 0.8 mL of solution or suspension into a centrifuge tube prior to centrifugation (12000 rpm, 37° C., 5 min) and filtration through 0.45 μm PTFE membrane. • Tested pH and concentration for the filtrate. Analyze residual solids by XRPD.
0.1 g of NaCl and 0.05 g of Triton X-100 were weighed into a 50-mL volumetric flask. Purified water was added to dissolve the solid. 67.5 μL HCl (38%, 12M) was added after the solid was dissolved completely. pH was then adjusted to 1.8 using HCl (1 M) or NaOH (1 M). Purified water was added to the volume.
(§1) 0.17 g of anhydrous NaH2PO4, 0.021 g of NaOH and 0.31 g of NaCl were weighed into a 50-mL volumetric flask. ˜48 mL purified water was added to dissolve the solid. pH was adjusted to 6.5 using 1M HCl or 1M NaOH. Purified water was then added to the volume. 0.11 g of SIF powder was added into the volumetric flask.
as §1, with “0.41 mL” for “0.17 g”, “acetic acid, 0.20” for “anhydrous NaH2PO4, 0.021”, “0.59” for “0.31”, “5.0” for “6.5”, “0.56” for “0.11”

[3] = Hygroscopicity by DVS at 25° C.
Experimental: DVS was measured via a SMS (Surface Measurement Systems) DVS Intrinsic. The relative humidity at 25° C. were calibrated against deliquescence point of LiCl, Mg(NO3)2 and KCl.

N#Cc1ccc(COc2cccc(C3CCN(Cc4nc5ccc(C(=O)O)cc5n4Cc4cncs4)CC3)n2)c(F)c1 [Potassium salt Type A]
HPLC peak Area, RRT 0.70 ([1]; 25° C./60% RH, 1 week): 0.06%
HPLC peak Area, RRT 0.73 ([1]; 25° C./60% RH, 1 week): 0.15%
HPLC peak Area, RRT 0.83 ([1]; 25° C./60% RH, 1 week): 1.80%
HPLC peak Area, RRT 0.90 ([1]; 25° C./60% RH, 1 week): 0.09%
HPLC peak Area, RRT 0.99 ([1]; 25° C./60% RH, 1 week): 0.06%
HPLC peak Area, RRT 1.05 ([1]; 25° C./60% RH, 1 week): 0.27%
HPLC peak Area, RRT 1.10 ([1]; 25° C./60% RH, 1 week): 0.67%
HPLC peak Area, RRT 1.11 ([1]; 25° C./60% RH, 1 week): 0.05%
HPLC peak Area, RRT 1.12 ([1]; 25° C./60% RH, 1 week): 0.06%
HPLC peak Area, RRT 1.15 ([1]; 25° C./60% RH, 1 week): 0.21%
HPLC peak Area, RRT 1.34 ([1]; 25° C./60% RH, 1 week): 0.10%
HPLC peak Area, RRT 1.00 ([1]; 25° C./60% RH, 1 week): 96.47%
Form change ([1]; 25° C./60% RH/Open/1 week): No
Purity ([1]; 25° C./60% RH/Open/1 week): 96.47 Area %
solid-state stability: form change and purity decrease ([1]; 25° C./60% RH/open and 40° C./75% RH/open, 1 week): no form change or significant purity decrease
HPLC peak Area, RRT 0.70 ([1]; 40° C./75% RH, 1 week): 0.05%
HPLC peak Area, RRT 0.73 ([1]; 40° C./75% RH, 1 week): 0.14%
HPLC peak Area, RRT 0.83 ([1]; 40° C./75% RH, 1 week): 1.78%
HPLC peak Area, RRT 0.90 ([1]; 40° C./75% RH, 1 week): 0.09%
HPLC peak Area, RRT 0.99 ([1]; 40° C./75% RH, 1 week): <0.05%
HPLC peak Area, RRT 1.05 ([1]; 40° C./75% RH, 1 week): 0.28%
HPLC peak Area, RRT 1.10 ([1]; 40° C./75% RH, 1 week): 0.66%
HPLC peak Area, RRT 1.11 ([1]; 40° C./75% RH, 1 week): 0.06%
HPLC peak Area, RRT 1.12 ([1]; 40° C./75% RH, 1 week): 0.06%
HPLC peak Area, RRT 1.15 ([1]; 40° C./75% RH, 1 week): 0.22%
HPLC peak Area, RRT 1.34 ([1]; 40° C./75% RH, 1 week): 0.07%
HPLC peak Area, RRT 1.00 ([1]; 40° C./75% RH, 1 week): 96.58%
Form change ([1]; 40° C./75% RH/Open/1 week): No
Purity ([1]; 40° C./75% RH/Open/1 week): 96.58 Area %
HPLC peak Area, RRT 0.70 ([1]; Initial): 0.05%
HPLC peak Area, RRT 0.73 ([1]; Initial): 0.16%
HPLC peak Area, RRT 0.83 ([1]; Initial): 1.84%
HPLC peak Area, RRT 0.90 ([1]; Initial): 0.09%
HPLC peak Area, RRT 0.99 ([1]; Initial): 0.05%
HPLC peak Area, RRT 1.05 ([1]; Initial): 0.27%
HPLC peak Area, RRT 1.10 ([1]; Initial): 0.70%
HPLC peak Area, RRT 1.11 ([1]; Initial): 0.05%
HPLC peak Area, RRT 1.12 ([1]; Initial): 0.06%
HPLC peak Area, RRT 1.15 ([1]; Initial): 0.22%
HPLC peak Area, RRT 1.34 ([1]; Initial): 0.10%
Purity ([1]; Initial): 96.41 Area %
HPLC peak Area, RRT 1.00 ([1]; Initial): 96.41%
S: Solubility ([2]; FaSSIF, 1 hr): 24 µg/mL
FC: Form change ([2]; FaSSIF, 1 hr): No
S: Solubility ([2]; FaSSIF, 2 hrs): 21 µg/mL
FC: Form change ([2]; FaSSIF, 2 hrs): No
S: Solubility ([2]; FaSSIF, 4 hrs): 22 µg/mL
FC: Form change ([2]; FaSSIF, 4 hrs): No
S: Solubility ([2]; FaSSIF, 24 hrs): 29 µg/mL
FC: Form change ([2]; FaSSIF, 24 hrs): Yes
S: Solubility ([2]; FeSSIF, 1 hr): 38 µg/mL
FC: Form change ([2]; FeSSIF, 1 hr): No
S: Solubility ([2]; FeSSIF, 2 hrs): 35 µg/mL
FC: Form change ([2]; FeSSIF, 2 hrs): No
S: Solubility ([2]; FeSSIF, 4 hrs): 34 µg/mL
FC: Form change ([2]; FeSSIF, 4 hrs): No
S: Solubility ([2]; FeSSIF, 24 hrs): 21 µg/mL
FC: Form change ([2]; FeSSIF, 24 hrs): Yes
S: Solubility ([2]; H2O, 1 hr): 920 µg/mL
FC: Form change ([2]; H2O, 1 hr): No
S: Solubility ([2]; H2O, 2 hrs): 1700 µg/mL
FC: Form change ([2]; H2O, 2 hrs): Yes
S: Solubility ([2]; H2O, 4 hrs): 3800 µg/mL
FC: Form change ([2]; H2O, 4 hrs): Yes
S: Solubility ([2]; H2O, 24 hrs): 4900 µg/mL
FC: Form change ([2]; H2O, 24 hrs): Yes
S: Solubility ([2]; SGF, 1 hr): 280 µg/mL
FC: Form change ([2]; SGF, 1 hr): Yes
S: Solubility ([2]; SGF, 2 hrs): 69 µg/mL
FC: Form change ([2]; SGF, 2 hrs): Yes
S: Solubility ([2]; SGF, 4 hrs): 39 µg/mL
FC: Form change ([2]; SGF, 4 hrs): Yes
S: Solubility ([2]; SGF, 24 hrs): 50 µg/mL
FC: Form change ([2]; SGF, 24 hrs): Yes
form change of residual solids (XRPD) after solubility test ([2]; all the media (H2O, SGF, FaSSIF, FeSSIF), after 24 hrs): form change was observed
water uptake (DVS) ([3]; 25° C./80% RH): 0.62%
hygroscopicity ([3]; DVS, 25° C.): slightly hygroscopic
Water uptake at 25° C./80% RH ([3]; DVS, 25° C./80% RH): 0.62 wt %
For change after DVS ([3]; XRPD after DVS test): No
form change after DVS test (XRPD) ([3]; after DVS test): no form change
